These results are taken from ChEMBL document CHEMBL5107990, “Discovery of 2-vinyl-10H-phenothiazine derivatives as a class of ferroptosis inhibitors with minimal human Ether-a-go-go related gene (hERG) activity for the treatment of DOX-induced cardiomyopathy” (Bioorg Med Chem Lett, 2022).

In test [1] the test system is HT-1080. Briefly: Anti-ferroptotic activity against Erastin-induced ferroptosis in human HT-1080 cells. The test is classed as functional, cell-based.
Test [2] addresses Voltage-gated inwardly rectifying potassium channel KCNH2 (Homo sapiens, UniProt Q12809). The test can be described thus: Inhibition of hERG. The test is classed as toxicity.
Test [3] relates to HT-1080. The test can be described thus: Anti-ferroptotic activity against Erastin-induced ferroptosis in human HT-1080 cells assessed as cell viability measured by MTT assay. The test is classed as functional, cell-based.
Test [4] has as its system Calu-1. The test can be described thus: Anti-ferroptotic activity against Erastin-induced ferroptosis in human Calu-1 cells assessed as cell viability measured by MTT assay. It counts as functional, cell-based. Background: Tetrazolium dyes change colour on reduction, which living cells bring about.
The test system of the next test is ES-2. The test can be described thus: Anti-ferroptotic activity against Erastin-induced ferroptosis in human ES2 cells assessed as cell viability measured by MTT assay. The test is classed as functional, cell-based.
The next test has as its system MDA-MB-231. The test can be described thus: Anti-ferroptotic activity against Erastin-induced ferroptosis in human MDA-MB-231 cells assessed as cell viability measured by MTT assay. It counts as functional, cell-based.
The subject of test [5] is HT-1080. Briefly: Anti-ferroptotic activity against Erastin-induced ferroptosis in human HT-1080 cells assessed as decrease in smaller and rounder cells measured by cytocalcein violet 450 staining method. The test is classed as functional, cell-based.
In test [6] the test system is HT-1080. The test can be described thus: Anti-ferroptotic activity against Erastin-induced ferroptosis in human HT-1080 cells assessed as decrease in smaller and rounder cells measured by 7-AAD staining method. The test is classed as functional, cell-based.
Test [7] has as its system Calu-1. Briefly: Anti-ferroptotic activity against Erastin-induced ferroptosis in human Calu-1 cells assessed as decrease in smaller and rounder cells measured by cytocalcein violet 450 staining method. The test is classed as functional, cell-based.
Test [8] concerns Calu-1. Briefly: Anti-ferroptotic activity against Erastin-induced ferroptosis in human Calu-1 cells assessed as decrease in smaller and rounder cells measured by 7-AAD staining method. The test is classed as functional, cell-based.
Test [9] has as its system HT-1080. Briefly: Anti-ferroptotic activity against Erastin-induced ferroptosis in human HT-1080 cells assessed as decrease in MDA level at 0.01 to 1 uM. The conditions noted are these: dose 0.01-1 µM. The test is classed as functional, cell-based.
Test [10] can be described thus: Antioxidant activity assessed as DPPH radical scavenging activity at 10 to 50 uM. The conditions noted are these: dose 10-50 µM. The test is classed as functional. (The DPPH test is a chemical assay of radical scavenging.)
Test [11] has as its system HT-1080. The test can be described thus: Antioxidant activity in human HT-1080 cells assessed as reduction in ROS production in cytoplasm at 0.01 to 1 uM measured by H2DCFDA staining method. It counts as functional, cell-based. The conditions noted are these: dose 0.01-1 µM.
The test system of test [12] is HT-1080. The test can be described thus: Antioxidant activity in human HT-1080 cells assessed as reduction in lipid ROS production at 0.01 to 1 uM measured by C11-BODIPY staining method. It counts as functional, cell-based. The conditions noted are these: dose 0.01-1 µM.
The test system of test [13] is Mus musculus. The test can be described thus: Protection against doxorubicin-induced cardiomyopathy model of mouse assessed as decrease in serum AST level at 10 to 30 mg/kg, ip administered 2 hrs prior to doxorubicin administration. It counts as functional, organism-based. The conditions noted are these: dose 10-30 mg/kg.
Test [14] relates to Mus musculus. Briefly: Protection against doxorubicin-induced cardiomyopathy model of mouse assessed as decrease in serum ALT level at 10 to 30 mg/kg, ip administered 2 hrs prior to doxorubicin administration. The test is classed as functional, organism-based. The conditions noted are these: dose 10-30 mg/kg.
For test [15], the system named is Mus musculus. The test can be described thus: Protection against doxorubicin-induced cardiomyopathy model of mouse assessed as decrease in serum CK-MB level at 10 to 30 mg/kg, ip administered 2 hrs prior to doxorubicin administration. It counts as functional, organism-based. The conditions noted are these: dose 10-30 mg/kg.
Test [16] has as its system Mus musculus. The test can be described thus: Protection against doxorubicin-induced cardiomyopathy model of mouse assessed as decrease in serum LDH level at 10 to 30 mg/kg, ip administered 2 hrs prior to doxorubicin administration. It counts as functional, organism-based. The conditions noted are these: dose 10-30 mg/kg.
The subject of test [17] is Mus musculus. The test can be described thus: Protection against doxorubicin-induced cardiomyopathy model of mouse assessed as […] in collagen outflow at 10 to 30 mg/kg, ip administered 2 hrs prior to doxorubicin administration measured by H and E staining method. It counts as functional, organism-based. The conditions noted are these: dose 10-30 mg/kg.
Test [18] deals with Mus musculus. Briefly: Protection against doxorubicin-induced cardiomyopathy model of mouse assessed as […] in collagen outflow at 10 to 30 mg/kg, ip administered 2 hrs prior to doxorubicin administration measured by Sirius red staining method. The conditions noted are these: dose 10-30 mg/kg. The test is classed as functional, organism-based.

Usually EC50 stands for the concentration that produces a half-maximal response. What is called IC50 is the midpoint of a concentration-inhibition curve.

Activity calls are given as the source filed them. The rule behind the calls is not given here.

Chain of Voltage-gated inwardly rectifying potassium channel KCNH2 (Q12809 whole entry): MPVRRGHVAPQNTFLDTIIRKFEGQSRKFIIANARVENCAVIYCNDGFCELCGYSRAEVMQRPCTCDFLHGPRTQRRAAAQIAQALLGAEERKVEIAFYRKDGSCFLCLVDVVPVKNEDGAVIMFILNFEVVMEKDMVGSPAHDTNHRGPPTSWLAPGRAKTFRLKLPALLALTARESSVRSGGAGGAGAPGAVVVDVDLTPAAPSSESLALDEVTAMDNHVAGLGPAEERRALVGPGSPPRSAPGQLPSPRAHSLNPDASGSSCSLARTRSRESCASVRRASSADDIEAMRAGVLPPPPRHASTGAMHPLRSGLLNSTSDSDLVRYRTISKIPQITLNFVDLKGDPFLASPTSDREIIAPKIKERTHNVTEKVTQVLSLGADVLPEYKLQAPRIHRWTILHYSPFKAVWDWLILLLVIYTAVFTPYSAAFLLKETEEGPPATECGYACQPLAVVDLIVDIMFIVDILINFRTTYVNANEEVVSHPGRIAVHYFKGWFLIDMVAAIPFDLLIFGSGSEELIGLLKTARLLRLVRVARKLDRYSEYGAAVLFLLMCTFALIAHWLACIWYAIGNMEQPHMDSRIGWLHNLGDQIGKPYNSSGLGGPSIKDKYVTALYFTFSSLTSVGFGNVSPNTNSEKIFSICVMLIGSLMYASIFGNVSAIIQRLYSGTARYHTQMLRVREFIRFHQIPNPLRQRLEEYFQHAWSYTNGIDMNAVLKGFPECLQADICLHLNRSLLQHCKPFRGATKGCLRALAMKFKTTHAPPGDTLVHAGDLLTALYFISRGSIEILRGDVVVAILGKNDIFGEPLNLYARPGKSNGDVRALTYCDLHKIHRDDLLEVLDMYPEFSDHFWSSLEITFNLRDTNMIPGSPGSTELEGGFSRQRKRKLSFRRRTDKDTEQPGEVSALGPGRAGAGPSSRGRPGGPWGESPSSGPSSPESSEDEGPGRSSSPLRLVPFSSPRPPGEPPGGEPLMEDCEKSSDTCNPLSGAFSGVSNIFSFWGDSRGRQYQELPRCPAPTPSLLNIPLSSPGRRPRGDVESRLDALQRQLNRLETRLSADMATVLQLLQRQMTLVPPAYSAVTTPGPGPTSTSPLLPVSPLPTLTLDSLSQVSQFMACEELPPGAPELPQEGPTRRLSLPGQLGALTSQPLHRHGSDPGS

Consider `C=C(c1ccc2c(c1)Nc1ccccc1S2)c1cccc2cnccc12`, for which, in the test on HT-1080 [1], the EC50 was 26 nM.

In turn, `C=C(c1ccccc1)c1ccc2c(c1)Nc1ccccc1S2` had an EC50 with HT-1080 [1] of 10 nM.

Turning to `C=C(c1ccc(-c2ccccc2)cc1)c1ccc2c(c1)Nc1ccccc1S2`, in the test on HT-1080 [1], a half-maximal effect (EC50) was put at 41 nM.

In the test on HT-1080 [1], `C=C(c1ccc(N2C[C@@H]3C[C@H]2CN3C)cc1)c1ccc2c(c1)Nc1ccccc1S2` showed an EC50 of 3 nM. Besides, in [2], inhibition was half-maximal at 12000 nM (IC50).

With `C=C(c1ccc2c(c1)Nc1ccccc1S2)c1cnc2ccccc2c1`, the EC50 in the test on HT-1080 [1] amounted to 19 nM.

In the case of `C=C(c1ccc(C(C)C)cc1)c1ccc2c(c1)Nc1ccccc1S2`, the response in the test on HT-1080 [1] was half-maximal at 40 nM (EC50).

For `C=C(c1ccc(C2CCCCC2)cc1)c1ccc2c(c1)Nc1ccccc1S2`, it took 39 nM to reach a half-maximal effect in the test on HT-1080 [1] (EC50).

As to `C=C(c1ccc2c(c1)Nc1ccccc1S2)c1cnc2c(cnn2C)c1`, the EC50 in the test with HT-1080 [1] came out at 58 nM.

In turn, `C=C(c1ccc2c(c1)Nc1ccccc1S2)c1cccc2ccncc12` showed an EC50 with HT-1080 [1] of 21 nM.

In the case of `C=C(c1ccc2c(c1)Nc1ccccc1S2)c1ccccc1N`, the EC50 with HT-1080 [1] is 29 nM.

With `C=C(c1ccc2c(c1)Nc1ccccc1S2)c1cnc2c(ccn2C)c1`, a half-maximal response in the test on HT-1080 [1] (EC50) required 42 nM.

For `C=C(c1ccc(C(F)(F)F)cc1)c1ccc2c(c1)Nc1ccccc1S2`, a half-maximal response with HT-1080 [1] (EC50) required 11 nM.

As to `C=C(c1ccc(NC(N)=O)cc1)c1ccc2c(c1)Nc1ccccc1S2`, the concentration for a half-maximal effect (EC50) in the test with HT-1080 [1] was found to be 1 nM; with HT-1080 [3], 1.61 nM; in the test on Calu-1 [4], 3.36 nM; with ES-2, 1.81 nM; in the test on MDA-MB-231, 1.01 nM. In test [2], the 50% inhibitory concentration (IC50) is greater than 30000 nM. In addition, the outcome (with HT-1080 [5]; with HT-1080 [6]; in the test with Calu-1 [7]; in the test with Calu-1 [8]; in the test on HT-1080 [9]; in test [10]) was Active. The result with HT-1080 [11], in the test on HT-1080 [12], with Mus musculus [13], in the test on Mus musculus [14], in the test on Mus musculus [15] and in the test with Mus musculus [16] was Active. For the same molecule, the result in the test with Mus musculus [17] and in the test with Mus musculus [18] was Active.

On to `C=C(c1cnc2c(c1)CCN2)c1ccc2c(c1)Nc1ccccc1S2`, for which, in the test on HT-1080 [1], a half-maximal effect (EC50) was put at 89 nM.

As for `C=C(c1ccc(NC(=O)N(C)C)cc1)c1ccc2c(c1)Nc1ccccc1S2`, it took 20 nM to reach a half-maximal effect in the test with HT-1080 [1] (EC50).

Molecule `C=C(c1ccc2c(c1)Nc1ccccc1S2)c1ccc2c(c1)SCC(=O)N2` showed an EC50 with HT-1080 [1] of 33 nM.

On to `C=C(c1ccc(N2CCOCC2)cc1)c1ccc2c(c1)Nc1ccccc1S2`, for which, in the test with HT-1080 [1], the EC50 was 39 nM.

`C=C(c1ccc2c(c1)Nc1ccccc1S2)c1cncc2ccccc12` came in with an EC50 with HT-1080 [1] of 25 nM.

As to `C=C(c1ccc2c(c1)Nc1ccccc1S2)c1ccc2c(c1)OCCO2`, in the test with HT-1080 [1], the response was half-maximal at 37 nM (EC50).

In turn, `C=C(c1cccc(N)c1)c1ccc2c(c1)Nc1ccccc1S2` came in with a half-maximal effective concentration (EC50) with HT-1080 [1] of 17 nM.

In the test with HT-1080 [1], `C=C(c1ccc(NC(C)=O)cc1)c1ccc2c(c1)Nc1ccccc1S2` displayed an EC50 of 4 nM. Moreover, the IC50 in test [2] amounted to 22000 nM.

In the test with HT-1080 [1], `C=C(c1ccc(OC)cc1)c1ccc2c(c1)Nc1ccccc1S2` registered a half-maximal effective concentration (EC50) of 13 nM.

On to `C=C(c1ccc(N2CC[C@H](N(C)C)C2)cc1)c1ccc2c(c1)Nc1ccccc1S2`, for which a half-maximal effect in the test on HT-1080 [1] (EC50) was put at 1 nM. In test [2], this molecule displayed a half-maximal inhibitory concentration (IC50) of 5060 nM.

`C=C(c1ccc(N)cc1)c1ccc2c(c1)Nc1ccccc1S2` displayed an EC50 in the test on HT-1080 [1] of 8 nM.

For the molecule `CC(c1ccc(N2C[C@@H]3C[C@H]2CN3C)cc1)c1ccc2c(c1)Nc1ccccc1S2` (stereo partly drawn), in the test on HT-1080 [1], the response was half-maximal at 3 nM (EC50). In [2], this molecule had an IC50 of 1980 nM.
